ChEMBL document CHEMBL1129941, “AMPA receptor agonists: synthesis, protolytic properties, and pharmacology of 3-isothiazolol bioisosteres of glutamic acid” (J Med Chem, 1997)

Assays:
[1] = species: Rattus norvegicus; assay: tissue or blood
Description: Effective concentration evaluated in electrophysiological rat cortical slice model

[2] = biological target: Glutamate receptor ionotropic, AMPA (Rattus norvegicus, UniProt P19490+P19491+P19492+P19493)
Description: In vitro binding affinity for Ionotropic glutamate receptor AMPA site was determined using [3H]AMPA as radioligand in rat cortex

[3] = tested on: Mus musculus; assay: In vivo convulsant potency after subcutaneous administration in mice; assay type: functional; details: sc

**Q.** With `NC(Cc1snc(O)c1Br)C(=O)O` (configuration not stated) as the compound, how does the EC50 [1] read?
**A.** Its EC50 is 500 µM.

**Q.** What about the IC50 [2] of the same compound?
**A.** The IC50 was 17 µM.

**Q.** Which EC50 [1] does the source give for `CC(C)(C)c1snc(O)c1CC(N)C(=O)O` (configuration not stated) here?
**A.** The EC50 was 14 µM.

**Q.** And the IC50 [2]?
**A.** Its IC50 is 0.63 µM.

**Q.** Which results are given for `NC(Cc1cc(O)ns1)C(=O)O` (configuration not stated)?
**A.** EC50 [1]: 370 µM; IC50 [2]: 5.8 µM

**Q.** What does the source list for `Cc1snc(O)c1CC(N)C(=O)O` (configuration not stated)?
**A.** EC50 [1]: 15 µM; IC50 [2]: 1.8 µM; ED50 [3]: 130 µmol/kg

**Q.** For `CC(C)(C)c1onc(O)c1CC(N)C(=O)O` (configuration not stated), which EC50 [1] is on record?
**A.** The EC50 was 34 µM.

**Q.** What does the source list for `NC(Cc1cc(O)no1)C(=O)O` (configuration not stated)?
**A.** EC50 [1]: 370 µM; IC50 [2]: 1.5 µM
